According to patent publication US7314620B2, “Methods for diagnosis and treatment of PH domain signal transduction disorders” (New York University, priority 1995, dated 2008):

Tests used:
Dyn-PH = target: T1, Dyn-PH (Homo sapiens, UniProt Q05193); assay: Equilibrium gel filtration (Hummel and Dreyer) of PH domain binding to lipid vesicles; conditions: PIP2-containing vesicles
T1 construct: The PH domains from PLC-δ1, and dynamin, as well as the N-terminal PH domain of pleckstrin; made in house; host or cells: Escherichia coli (T7 system)
T1 sequence (Q05193 519-625 limits assumed): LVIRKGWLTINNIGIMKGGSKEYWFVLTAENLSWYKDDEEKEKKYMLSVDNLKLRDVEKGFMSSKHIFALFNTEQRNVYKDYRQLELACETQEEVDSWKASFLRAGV
Procedure: A 150×7.5 mm Superdex 75 column, attached to a Dionex HPLC system, was equilibrated with buffer containing PH domain at around 5 μM (depending upon the experiment). A suspension of vesicles that also contained 5 μM PH domain was then injected. In the absence of interaction between the PH domain and the vesicles, the resulting column profile (detected by absorbance at 280 nm) reflects only the lipid peak. However, if there is significant interaction, a trough is observed at a position corresponding to the elution position of the free PH domain, since the lipids have removed free PH domain from the column buffer. When such a trough was observed, in order to determine a KD for the interaction, a series of higher concentrations of PH domain were injected, all with constant lipid concentration. A plot of trough area against [PH] in the injected sample was linear, becoming positive when excess free protein was present in the injected sample (see FIG. 5B). This line was used to determine the point at which no trough was observed. […] Since [PH]total as well as [lipid]total in the injected sample are known, KD can be determined, as KD=([PH]free×[lipid]free)/[complex]. […]
We also utilized the equilibrium gel-filtration approach described by Hummel, J. P., and Dreyer, W. J., Biochim. […] If an interaction is observed, its KD can be determined as described in Experimental Procedures. […]

whole PLC-δ1 = target: T2, whole PLC-δ1 (Homo sapiens, UniProt P51178); conditions: sucrose-loaded PIP2-containing vesicles; Rebecchi et al. 1992; read-out: apparent KD; cited from earlier work
T2 sequence (P51178 1-756): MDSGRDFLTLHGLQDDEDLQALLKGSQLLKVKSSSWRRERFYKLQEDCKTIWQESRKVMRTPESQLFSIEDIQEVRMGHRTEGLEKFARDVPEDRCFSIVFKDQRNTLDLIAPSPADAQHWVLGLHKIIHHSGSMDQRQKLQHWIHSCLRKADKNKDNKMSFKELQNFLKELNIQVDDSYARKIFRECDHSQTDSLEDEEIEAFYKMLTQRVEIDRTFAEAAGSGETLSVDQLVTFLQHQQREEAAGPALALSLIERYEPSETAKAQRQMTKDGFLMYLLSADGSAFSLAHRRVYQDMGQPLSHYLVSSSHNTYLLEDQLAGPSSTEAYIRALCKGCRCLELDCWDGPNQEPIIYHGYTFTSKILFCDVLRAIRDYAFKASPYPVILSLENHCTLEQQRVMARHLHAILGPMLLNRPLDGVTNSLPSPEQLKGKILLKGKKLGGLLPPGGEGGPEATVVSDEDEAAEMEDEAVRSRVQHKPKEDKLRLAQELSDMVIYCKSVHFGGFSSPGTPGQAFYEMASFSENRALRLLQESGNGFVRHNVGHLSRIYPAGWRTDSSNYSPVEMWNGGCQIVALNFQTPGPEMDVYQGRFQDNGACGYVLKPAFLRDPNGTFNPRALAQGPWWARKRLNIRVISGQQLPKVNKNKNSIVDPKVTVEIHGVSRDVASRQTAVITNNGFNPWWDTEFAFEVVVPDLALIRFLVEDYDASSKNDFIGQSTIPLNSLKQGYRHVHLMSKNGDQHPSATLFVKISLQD

[1] = tested on: any PH domain (PLCδ-PH, Dyn-PH, PlecN-PH); assay: Centrifugation-based assay of PH domain binding to lipid vesicles; conditions: lipid at 5% in DMPC vesicles
Procedure: Attempts to detect PH domain association with lipid vesicles were performed exactly as described by Harlan, J. E. et al., Nature 371, 168-170, 1994. In addition to using the BCA protein assay reagent, for which lipid blanks were rather high compared with the values expected for the protein concentrations employed, we also measured OD278 of the supernatants after addition of SDS in order to detect removal of protein upon pelleting vesicles. […] Initially, we performed a centrifugation-based assay, using the conditions described by Harlan, J. E. et al., Nature 371, 168-170, 1994. […] Similarly, we were unable to detect association of any of the PH domains with the same vesicles by using size-exclusion chromatography to separate protein and lipid. Any complexes between the PH domains and these vesicles therefore form with low affinity and/or have fast dissociation kinetics, such that they dissociate in the separation methods employed.

- binding to vesicles (Dyn-PH): no detectable binding
- binding to vesicles [1]: no binding
Substance: Phosphatidylinositol-(4,5)-bisphosphate [PIP2]
- Kd (whole PLC-δ1): ~2.5 µM
